For assay [1], the system named is T1, MBP-KfiA-His6 (Escherichia coli).
T1 construct: made in house; host or cells: E. coli BL21(DE3) co-expressing chaperone plasmid pGro7
As to the kind of experiment: GlcNAcT donor substrate specificity of MBP-KfiA-His6 (Example 12). The class given is biochemical, E. coli. As to conditions: acceptor GlcAβ2AA 1 mM, UDP-sugar 1 mM, MnCl2 10 mM, KfiA 2.8 μg μl^−1, 24 h, 37° C. As for the experimental part: (§1) PmHS2, KfiA, and related fusion proteins were expressed, purified, and characterized as described in Example 1. Reactions with UDP-sugars were carried out in duplicate at 37° C. in MES (100 mM, pH 6.5) containing UDP-GlcNAc or one of its derivatives (1 mM), GlcAβ2AA (1 mM), MnCl2 (10 mM) and KfiA (2.8 μg μl^−1) or PmHS2 (1.1 μg μl^−1) for 24 h. The reaction mixtures were stopped by adding ice-cold 10% (v/v) acetonitrile to make 100-fold dilutions and the mixtures were analyzed by HPLC as described for the pH profile.
(§2) Substrate specificity of the GlcNAcT activities of MBP-KfiA-his6 and his6-PmHS2. […] The reactions were easily analyzed by high performance liquid chromatography (HPLC) equipped with a fluorescence detector using an excitation wavelength of 315 nm and an emission wavelength of 400 nm to determine the ratio of the fluorescent disaccharide product formed and the fluorescent GlcAβ2AA acceptor.

For assay [2], the system named is His6-PmHS2. The experiment in a line: GlcNAcT donor substrate specificity of His6-PmHS2 (Example 12). As to conditions: acceptor GlcAβ2AA 1 mM, UDP-sugar 1 mM, MnCl2 10 mM, PmHS2 1.1 μg μl^−1, 24 h, 37° C. The class given is biochemical, Pasteurella multocida. As for the experimental part:
as §1, §2

Assay [3] concerns PmHS2. As to the kind of experiment: Small-scale PmHS2 donor substrate test by TLC. The class given is biochemical, Pasteurella multocida. Particulars: GlcAβ2AAMe 10 mM, donor 15 mM, MgCl2 10 mM, PmHS2 0.5 mg/mL, pH 7.5, 37° C., 12 hr. Here is the method: Prior to applying the one-pot three-enzyme system shown in FIG. 16 to the preparative-scale synthesis of the disaccharides, UDP-GlcNAc and derivatives F17-1-F17-12 were tested as donor substrates for PmHS2 in small-scale reaction containing Tris-HCl buffer (100 mM, pH 7.5), GlcAβ2AAMe (10 mM), UDP-GlcNAc or a derivative (15 mM), MgCl2 (10 mM), and PmHS2 (0.5 mg/mL). The reactions were carried out at 37° C. for 12 hr and analyzed by thin layer chromatography (TLC).

Assay [4] deals with NahK. The experiment in a line: Kinase reaction monitored by CE (ATP to ADP), NahK. As to conditions: monosaccharide 15 mM, ATP 18 mM, 37° C. The class given is biochemical, Bifidobacterium infantis. Here is the method:
Capillary electrophoresis (CE) and thin-layer chromatograph (TLC) assays for kinase reactions. Kinase reactions were carried out at 37° C. in a total volume of 30 μL in Tris-HCl buffer (100 mM, pH 8.0) containing monosaccharide (15 mM), ATP (18 mM, 1.2 eq.), MgCl2 (10 mM), and a kinase (6 μg). These conditions were similar to those used for preparative-scale synthesis. After 1 hr, 4 hr, and 24 hr, an aliquot of 8 μL was withdrawn from each reaction mixture, boiled in a water bath for 5 min and stored at −20° C. until being analyzed by capillary electrophoresis (CE) and TLC. For TLC analysis, 0.5 μL of each sample was directly spotted on TLC plates, developed using suitable developing solvents, and stained with anisaldehyde sugar stain. For CE analysis, 1.5 μL of each sample was diluted into 30 μL and subjected to CE analysis as described above for pH profile studies.
General methods for compound purification and characterization. Chemicals were purchased and used without further purification. ^1H NMR and ^13C NMR spectra were recorded on a Varian Mercury 600 NMR spectrometer. High resolution electrospray ionization (ESI) mass spectra were obtained in negative mode using Thermo Electron LTQ-Orbitrap mass spectrometer. Silica gel 60 Å (Sorbent Technologies) was used for flash column chromatography. Thin-layer chromatography (TLC) was performed on silica gel plates 60 GF254 (Sorbent Technologies) using anisaldehyde sugar stain for detection. Gel filtration chromatography was performed with a column (100 cm×2.5 cm) packed with BioGel P-2 Fine resins (Bio-Rad). GlcN3 (T6-9) (Lau K, Thon, V, Yu H, Ding L, Chen Y, Muthana M M, Wong D, Huang R, and Chen X. Chem. Commun. 2010, 46, 6066-6068), ManF (T6-11) (Burkart M D, Zhang Z, Hung S-C, and Wong C-H. J. Am. Chem. Soc. 1997, 119, 11743-11746; Cao H, Li Y, Lau K, Muthana S, Yu H, Cheng J, Chokhawala H A, Sugiarto G, Zhang L, and Chen X. Org. Biomol. Chem. 2009, 7, 5137-5145), GalN3 (T6-4) and ManN3 (T6-14) (Yu H, Yu H, Karpel R, cand Chen X. Bioorg. Med. Chem. 2004, 12, 6427-6435) were previously synthesized using reported methods. NahK_ATCC15697, EcGalK, SpGalK, and PmPpA were overexpressed as described previously.

Assay [5] addresses NahK_ATCC55813 (Bifidobacterium longum subsp. longum, UniProt E8MF12, D7V/R348H). The class given is biochemical. Particulars: Glc, Gal, Man, ManNAc and derivatives; enzyme 15, 37° C. for 30 min (Table 3). Also on record: made in house; host or cells: E. coli BL21(DE3). Here is the method:
(§3) Substrates specificity assays. GlcNAc, GalNAc, and their derivatives (1 mM) were used as substrates in the presence of ATP (1 mM) and MgCl2 (5 mM) in a Tris-HCl buffer (pH 8.0, 200 mM) to analyze the substrate specificity of NahKs. Two concentrations (0.75 μM or 15 μM) of each NahK were used and the reactions were allowed to proceed for 10 min (for 0.75 μM NahK) or 30 min (for 15 μM NahK) at 37° C. […] All other conditions were the same as for GlcNAc, GalNAc, and their derivatives.
(§4) Capillary electrophoresis (CE) assays. Based on the detection of ADP and ATP in the reaction mixture by a UV detector, a capillary electrophoresis-based method was developed to directly measure the formation of ADP and N-acetylhexosamine-1-phosphate from ATP and N-acetylhexosamine for characterizing the activities of NahKs.

Assay [6] has as its target NahK_ATCC15697 (Bifidobacterium longum, UniProt B7GN78). As to the kind of experiment: Substrate specificity CE assay, NahK_ATCC15697. The format is biochemical, Bifidobacterium infantis. Particulars: Glc, Gal, Man, ManNAc and derivatives; enzyme 15, 37° C. for 30 min (Table 3). Here is the method: as §3, §4

Take `O=C(Cc1ccccc1)NC1C(OP(=O)(O)OP(=O)(O)OCC2OC(n3ccc(=O)[nH]c3=O)C(O)C2O)OC(CO)C(O)C1O` [Compound 33-5, Uridine 5′-diphospho-2-phenylacetamido-2-deoxy-α-D-glucopyranoside]: in assay [1], the “donor substrate for MBP-KfiA-His6” value is on record as “not for MBPKfiA-His6”. Also, the “donor substrate for the α1-4GlcNAcT activity of His6-PmHS2” value (from here on “donor substrate … of His6-PmHS2”) in assay [2] was “tolerable donor substrates for His6-PmHS2”.

With `O=C(Cc1ccc(-c2ccccc2)cc1)N[C@H]1[C@@H](OP(=O)(O)OP(=O)(O)OC[C@H]2O[C@@H](n3ccc(=O)[nH]c3=O)[C@H](O)[C@@H]2O)O[C@H](CO)[C@@H](O)[C@@H]1O` [Compound 33-6, Uridine 5′-diphospho-2-(1,1′-biphenyl-4-yl)acetamido-2-deoxy-α-D-glucopyranoside], in assay [1], the “donor substrate for MBP-KfiA-His6” value is “not suitable donor substrates”. The “donor substrate … of His6-PmHS2” value in assay [2] is given as “not suitable donor substrates”.

With `CC(=O)NC1C(OP(=O)(O)OP(=O)(O)OCC2OC(n3ccc(=O)[nH]c3=O)C(O)C2O)OC(CNC(=O)Cc2ccccc2)C(O)C1O` [Compound 33-14, Uridine 5′-diphospho-2-acetamido-6-phenylacetamido-2,6-dideoxy-α-D-glucopyranoside], in assay [1], the “donor substrate for MBP-KfiA-His6” value was “not suitable donor substrates”. The “donor substrate … of His6-PmHS2” value in assay [2] is on record as “not suitable donor substrates”.

Regarding `CC(=O)NC1C(OP(=O)(O)OP(=O)(O)OCC2OC(n3ccc(=O)[nH]c3=O)C(O)C2O)OC(CNC(=O)Cc2ccc(-c3ccccc3)cc2)C(O)C1O` [Compound 33-15, Uridine 5′-diphospho-2-acetamido-6-(1,1′-biphenyl-4-yl)-acetamido-2,6-dideoxy-α-D-glucopyranoside], in assay [1], the “donor substrate for MBP-KfiA-His6” value was “not suitable donor substrates”. Besides, the “donor substrate … of His6-PmHS2” value in assay [2] is listed as “not suitable donor substrates”.

As for `CC(=O)N[C@H]1[C@@H](OP(=O)(O)OP(=O)(O)OC[C@H]2O[C@@H](n3ccc(=O)[nH]c3=O)[C@H](O)[C@@H]2O)O[C@H](CO)[C@H](O)[C@@H]1O` [Compound 33-18, uridine 5′-diphospho-2-acetamido-2-deoxy-α-D-glacopyranoside], the “donor substrate for MBP-KfiA-His6” value in assay [1] is reported as “not for MBPKfiA-His6”. Further, the “donor substrate … of His6-PmHS2” value in assay [2] was “tolerable donor substrates for His6-PmHS2”.

Regarding `CC(=O)N[C@@H]1[C@@H](OP(=O)(O)OP(=O)(O)OC[C@H]2O[C@@H](n3ccc(=O)[nH]c3=O)[C@H](O)[C@@H]2O)O[C@H](CO)[C@@H](O)[C@@H]1O` [Compound 33-20, Uridine 5′-diphospho-2-acetamido-2-deoxy-α-D-mannopyranoside], the “donor substrate for MBP-KfiA-His6” value in assay [1] is given as “not tolerable substrate”. In addition, in assay [2], the “donor substrate … of His6-PmHS2” value is “not tolerable substrate”.

In the case of `[N-]=[N+]=N[C@@H]1[C@@H](OP(=O)(O)OP(=O)(O)OC[C@H]2O[C@@H](n3ccc(=O)[nH]c3=O)[C@H](O)[C@@H]2O)O[C@H](CO)[C@@H](O)[C@@H]1O` [Compound 33-21, Uridine 5′-diphospho-2-azido-2-deoxy-α-D-mannopyranoside], the “donor substrate for MBP-KfiA-His6” value in assay [1] is on record as “not tolerable substrate”. For the same compound, in assay [2], the “donor substrate … of His6-PmHS2” value is recorded as “not tolerable substrate”.

For the compound `O=c1ccn(C2OC(COP(=O)(O)OP(=O)(O)OC3OC(CO)C(O)C(O)C3F)C(O)C2O)c(=O)[nH]1` [Compound 33-23, Uridine 5′-diphospho-2-fluoro-2-deoxy-α-D-mannopyranoside], the “donor substrate for MBP-KfiA-His6” value in assay [1] was “not tolerable substrate”. For the same compound, the “donor substrate … of His6-PmHS2” value in assay [2] was “not tolerable substrate”.

Consider `NC1C(OP(=O)(O)OP(=O)(O)OCC2OC(n3ccc(=O)[nH]c3=O)C(O)C2O)OC(CO)C(O)C1O` [Compound F17-5, Uridine 5′-diphospho-2-amino-2-deoxy-α-D-glucopyranoside], for which the “donor substrate for MBP-KfiA-His6” value in assay [1] is “not acceptable donor substrates”. Further, in assay [2], the “donor substrate … of His6-PmHS2” value is “not acceptable donor substrates”. Further, the “donor substrate for PmHS2” value in assay [3] is on record as “did not serve as donor substrates”.

Consider `O=c1ccn([C@@H]2O[C@H](COP(=O)(O)OP(=O)(O)O[C@H]3O[C@H](CO)[C@@H](O)[C@H](O)[C@H]3NS(=O)(=O)O)[C@@H](O)[C@H]2O)c(=O)[nH]1` [Compound F17-7, Uridine 5′-diphospho-2-sulfoamino-2-deoxy-α-D-glucopyranoside], for which, in assay [2], the “donor substrate … of His6-PmHS2” value was “block the activities of both”. For the same compound, in assay [3], the “donor substrate for PmHS2” value is listed as “did not serve as donor substrates”.

Regarding `CC(=O)N[C@H]1[C@@H](OP(=O)(O)OP(=O)(O)OC[C@H]2O[C@@H](n3ccc(=O)[nH]c3=O)[C@H](O)[C@@H]2O)O[C@H](COS(=O)(=O)O)[C@@H](O)[C@@H]1O` [Compound F17-12, Uridine 5′-diphospho-2-acetamido-2-deoxy-6-O-sulfo-α-D-glucopyranoside], in assay [2], the “donor substrate … of His6-PmHS2” value was “block the activities of both”. Besides, the “donor substrate for PmHS2” value in assay [3] is given as “did not serve as donor substrates”.

For `CC(=O)N[C@@H]1C(O)O[C@H](CO)[C@@H](O)[C@@H]1O` (stereo partly shown) [N-acetylmannosamine], the “ATP Conversion” value in assay [4] (1 hr) worked out at 11.4%; in assay [4] (4 hr), 26.1%; in assay [4] (24 hr), 73.8%. The “Percentage Conversion” value in assay [5] amounted to 5.5 ± 0.1%; in assay [6], 8.9 ± 0.1%.

Values taken from US10160986B2, “Chemoenzymatic synthesis of heparin and heparan sulfate analogs” (The Regents of the University of California, priority 2011, dated 2018).
